Data taken from EP4667464A1 (Cyrus Therapeutics Inc., priority 2023, dated 2024).

The molecules below were run against T1, KRAS G12C::SOS1 (Homo sapiens, UniProt Q07889) (assay: KRAS G12C::SOS1 protein-protein interaction (PPI) inhibition assay (HTRF)). Details: not given.
T1 construct: purchased CISBIO 64KRASG12PEH
T1 sequence (Q07889 1-1333): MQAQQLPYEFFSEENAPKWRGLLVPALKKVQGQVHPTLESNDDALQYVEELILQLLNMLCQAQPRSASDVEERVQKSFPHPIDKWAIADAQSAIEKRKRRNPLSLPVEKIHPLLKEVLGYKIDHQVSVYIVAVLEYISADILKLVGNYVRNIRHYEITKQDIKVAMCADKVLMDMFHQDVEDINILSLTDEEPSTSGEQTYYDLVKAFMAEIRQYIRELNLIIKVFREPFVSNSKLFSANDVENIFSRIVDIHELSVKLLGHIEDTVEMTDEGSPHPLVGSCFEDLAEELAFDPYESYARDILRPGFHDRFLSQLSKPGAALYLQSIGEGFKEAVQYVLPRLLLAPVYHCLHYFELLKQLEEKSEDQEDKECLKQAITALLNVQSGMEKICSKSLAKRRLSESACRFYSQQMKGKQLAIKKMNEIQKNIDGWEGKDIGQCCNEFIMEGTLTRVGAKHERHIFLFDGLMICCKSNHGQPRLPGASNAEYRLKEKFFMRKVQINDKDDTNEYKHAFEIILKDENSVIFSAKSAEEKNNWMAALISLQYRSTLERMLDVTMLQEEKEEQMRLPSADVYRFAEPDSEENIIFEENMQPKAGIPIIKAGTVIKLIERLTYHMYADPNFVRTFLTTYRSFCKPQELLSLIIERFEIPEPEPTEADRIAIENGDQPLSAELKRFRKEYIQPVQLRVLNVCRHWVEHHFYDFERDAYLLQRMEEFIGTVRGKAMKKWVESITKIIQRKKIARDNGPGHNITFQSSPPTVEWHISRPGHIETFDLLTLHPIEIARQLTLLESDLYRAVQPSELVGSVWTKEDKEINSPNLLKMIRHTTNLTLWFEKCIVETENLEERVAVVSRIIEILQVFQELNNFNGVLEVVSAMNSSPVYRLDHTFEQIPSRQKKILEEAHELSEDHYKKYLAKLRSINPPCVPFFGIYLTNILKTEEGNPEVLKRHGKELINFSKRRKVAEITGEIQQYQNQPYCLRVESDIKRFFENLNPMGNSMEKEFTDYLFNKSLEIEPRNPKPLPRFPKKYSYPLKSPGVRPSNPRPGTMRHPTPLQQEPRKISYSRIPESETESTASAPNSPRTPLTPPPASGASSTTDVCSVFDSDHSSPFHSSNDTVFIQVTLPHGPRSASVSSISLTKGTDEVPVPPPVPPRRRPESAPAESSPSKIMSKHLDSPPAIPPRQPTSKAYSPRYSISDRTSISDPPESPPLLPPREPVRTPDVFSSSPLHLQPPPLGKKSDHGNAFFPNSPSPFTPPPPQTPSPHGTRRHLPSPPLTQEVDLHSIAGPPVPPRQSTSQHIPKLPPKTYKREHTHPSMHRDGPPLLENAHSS
Format: binding
Method: Protein-protein interaction between SOS1 and KRAS^G12c was detected using KRAS G12C/SOS1 binding kit from CISBIO (64KRASG12PEH, CISBIO, FRANCE) according to the manufacturer's assay method. Briefly, the maximum concentration of an inhibitor sample was set to be 3 µM, and the inhibitor sample was diluted 7 times by 1/3, and samples having a total of 8 concentrations were prepared. In HTRF (Homogeneous Time-Resolved Fluorescence) exclusive 96-well low-volume white plate (66PL96005, CISBIO, FRANCE), 2 µL of an inhibitor sample prepared for each concentration, 5 µL of a mixed solution of Tag1 labeled KRAS^G12c protein and GTP diluted with the dilution solution provided by the manufacturer, and 5 µL of Tag2 labeled SOS1 protein were mixed, and added with 8 µL of a diluted solution where anti-Tag1 KRAS^G12C XL665 (HTRF acceptor) labeled antibody and anti-Tag2 SOS1 Terbium cryptate (HTRF donor) labeled antibody were mixed in an equal ratio and cultured at room temperature for 2 h.

SMILES	IC50 [nM]
COCC1(c2cccc([C@@H](C)NC(=O)c3ccc(=O)n(-c4cncc(-c5cnnn5C)c4)n3)c2F)CC1 [Example 18, N-[(1R)-1-[2-fluoro-3-[1-(methoxymethyl)cyclopropyl]phenyl]ethyl]-1-[5-(3-methyltriazol-4-yl)-3-pyridyl]-6-oxo-pyridazine-3-carboxamide]	> 150

Same assay, conditions: 8 concentrations from 3 µM, three replicates; read-out: KRAS G12C::SOS1 PPI

SMILES	IC50 [nM]
COc1ncc(-n2nc(C(=O)N[C@H](C)c3cccc(C(F)(F)F)c3F)ccc2=O)cc1-c1cnnn1C [Example 6-5, N-{(R)-1-[2-fluoro-3-(trifluoromethyl)phenyl]ethyl}-1-[6-methoxy-5-(1-methyl-1H-1,2,3-triazol-5-yl)-3-pyridyl]-6-oxo-1,6-dihydropyridazine-3-carboxamide]	50 to 150
[2H]C([2H])([2H])[C@@H](NC(=O)c1ccc(=O)n(-c2cncc(-c3cnnn3C3CC3)c2)n1)c1cccc(C(F)(F)CO)c1F [Example 1-60, 1-[5-(1-cyclopropyl-1H-1,2,3-triazol-5-yl)-3-pyridyl]-6-oxo-N-[(1R)-2,2,2-trideuterio-1-[3-(1,1-difluoro-2-hydroxy-ethyl)-2-fluoro-phenyl]ethyl]pyridazine-3-carboxamide]	< 50
CNc1ncc(-n2nc(C(=O)N[C@H](C)c3cccc(C(F)(F)F)c3F)ccc2=O)cc1-c1cnnn1C [Example 1-45, N-{(R)-1-[2-fluoro-3-(trifluoromethyl)phenyl]ethyl}-1-[6-(methylamino)-5-(1-methyl-1H-1,2,3-triazol-5-yl)-3-pyridyl]-6-oxo-1,6-dihydropyridazine-3-carboxamide]	50 to 150
C[C@@H](NC(=O)c1ccc(=O)n(-c2cncc(-c3cnnn3C)c2)n1)c1cccc(C2=CCC2)c1F (single isomer, unassigned) [Example 17]	> 150
C[C@@H](NC(=O)c1cc(N[C@H](C)c2cccc(C(F)(F)F)c2F)c(=O)n(-c2cncc(-c3cnnn3C)c2)n1)c1cccc(C(F)(F)F)c1F [Example 1-44, N-{(R)-1-[2-fluoro-3-(trifluoromethyl)phenyl]ethyl}-5-{(R)-1-[2-fluoro-3-(trifluoromethyl)phenyl]ethylamino}-1-[5-(1-methyl-1H-1,2,3-triazol-5-yl)-3-pyridyl]-6-oxo-1,6-dihydropyridazine-3-carboxamide]	> 150
Cc1ncc(-n2nc(C(=O)N[C@H](C)c3cccc(C(F)F)c3F)ccc2=O)cc1-c1cnnn1C [Example 1-47, N-{(R)-1-[3-(difluoromethyl)-2-fluorophenyl]ethyl}-1-[6-methyl-5-(1-methyl-1H-1,2,3-triazol-5-yl)-3-pyridyl]-6-oxo-1,6-dihydropyridazine-3-carboxamide]	> 150
C[C@@H](NC(=O)c1ccc(=O)n(-c2cncc(-c3cnnn3C)c2)n1)c1cccc(C(F)(F)F)c1Cl [Example 1-31, N-[(1R)-1-[2-chloro-3-(trifluoromethyl)phenyl]ethyl]-1-[5-(3-methyltriazol-4-yl)-3-pyridyl]-6-oxo-pyridazine-3-carboxamide]	50 to 150
C[C@@H](NC(=O)c1ccc(=O)n(-c2cnc(N(C)C)c(-c3cnnn3C)c2)n1)c1cccc(C(F)(F)F)c1F [Example 6-6, N-{(R)-1-[2-fluoro-3-(trifluoromethyl)phenyl]ethyl}-1-[6-(dimethylamino)-5-(1-methyl-1H-1,2,3-triazol-5-yl)-3-pyridyl]-6-oxo-1,6-dihydropyridazine-3-carboxamide]	50 to 150
C[C@@H](NC(=O)c1ccc(=O)n(-c2cncc(-c3cnnn3C)c2)n1)c1cccc(C2(CF)CC2)c1F (single isomer, unassigned) [Example 16]	> 150
Cc1ncc(-n2nc(C(=O)N[C@H](C)c3cccc(C(F)(F)CO)c3C)ccc2=O)cc1-c1cnnn1C [Example 1-28, N-[(1R)-1-[3-(1,1-difluoro-2-hydroxy-ethyl)-2-methyl-phenyl]ethyl]-1-[6-methyl-5-(3-methyltriazol-4-yl)-3-pyridyl]-6-oxo-pyridazine-3-carboxamide]	> 150

Same assay, conditions: read-out: KRAS G12C::SOS1 PPI; 8 concentrations from 3 µM, three replicates

SMILES	IC50 [nM]
C[C@@H](NC(=O)c1ccc(=O)n(-c2cncc(-c3cnnn3C)c2)n1)c1cccc(C2(CO)CC2)c1F [Example 1-32, N-[(1R)-1-[2-fluoro-3-[1-(hydroxymethyl)cyclopropyl]phenyl]ethyl]-1-[5-(3-methyltriazol-4-yl)-3-pyridyl]-6-oxo-pyridazine-3-carboxamide]	> 150

What follows are molecules tested against T2, SOS1 (Homo sapiens, UniProt Q07889) (assay: SOS-catalyzed nucleotide exchange assay (HTRF, SOS1-mediated GTP loading of KRAS G12D)). Details: GST-KRAS G12D, HIS-SOS1cat, compound 128 pM to 10 µM; read-out: SOS-catalyzed nucleotide exchange assay.
T2 construct: HIS-SOS1cat (160 nM; Cytoskeleton, US); His (N); purchased Cytoskeleton
T2 sequence (Q07889 564-1049 limits assumed): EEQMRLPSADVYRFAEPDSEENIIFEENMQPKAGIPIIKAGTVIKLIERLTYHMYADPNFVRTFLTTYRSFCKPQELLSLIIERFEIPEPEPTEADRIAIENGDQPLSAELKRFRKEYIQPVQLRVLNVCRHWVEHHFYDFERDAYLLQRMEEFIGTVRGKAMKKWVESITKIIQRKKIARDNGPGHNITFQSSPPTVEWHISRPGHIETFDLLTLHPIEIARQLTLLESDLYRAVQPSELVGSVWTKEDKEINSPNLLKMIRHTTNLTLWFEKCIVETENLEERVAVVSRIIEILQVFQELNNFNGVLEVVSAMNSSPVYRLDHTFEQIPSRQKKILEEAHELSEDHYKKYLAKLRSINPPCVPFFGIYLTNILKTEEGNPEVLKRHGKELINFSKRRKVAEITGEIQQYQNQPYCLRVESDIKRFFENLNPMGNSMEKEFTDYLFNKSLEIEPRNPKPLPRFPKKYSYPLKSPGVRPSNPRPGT
Format: biochemical
Method: SOS1 activity was measured by SOS1-mediated GTP loading quantification of KRAS^G12D. GTP loaded KRAS^G12D was detected by HTRF (Homogeneous Time Resolved Fluorescence) using anti-GST terbium (Cisbio, France) as a donor and a fluorescence GTP analogue (EDA-GTP-DY-647P1, [DY-647P1 labeled 2'/3'-O-(2-aminoethyl-carbamoyl)guanosine-5'-triphosphate (Jena bioscience, Germany)]) as an acceptor.
KRAS^G12D working solution was prepared by adding equal amounts of GST-KRAS^G12D (100 nM) and anti-GST-terbium (2 nM; Cisbio, France) to the assay buffer and culturing on ice for 10 minutes. […] Control solution was prepared by adding equal volumes of EDA-GTP-DY-647P1 and the assay buffer for normalization control to exclude GEF-independent GTP loading and background signals.
10 uL of the KRAS^G12D solution was added to each well and incubated for 30 minutes at room temperature while shaking. HTRF was measured using a Thermo Varioskan (excitation 334 nm, emission 665 nm). The IC50 of each inhibitor was analyzed using Graphad Prism.

SMILES	IC50 [nM]
[2H]C([2H])([2H])[C@@H](NC(=O)c1ccc(=O)n(-c2cncc(-c3cnnn3C3CC3)c2)n1)c1cccc(C(F)(F)CO)c1F [Example 1-60, 1-[5-(1-cyclopropyl-1H-1,2,3-triazol-5-yl)-3-pyridyl]-6-oxo-N-[(1R)-2,2,2-trideuterio-1-[3-(1,1-difluoro-2-hydroxy-ethyl)-2-fluoro-phenyl]ethyl]pyridazine-3-carboxamide]	< 50
[2H]C([2H])(O)C(F)(F)c1cccc([C@@H](C)NC(=O)c2ccc(=O)n(-c3cncc(-c4cnnn4C4COC4)c3)n2)c1F [Example 1-71, (R)-N-(1-(3-(1,1-difluoro-2-hydroxyethyl-2,2-dideuterio)-2-fluorophenyl)ethyl)-1-(5-(1-(oxetan-3-yl)-1H-1,2,3-triazol-5-yl)pyridin-3-yl)-6-oxo-1,6-dihydropyridazine-3-carboxamide]	< 50
C[C@@H](NC(=O)c1ccc(=O)n(-c2cncc(-c3cnnn3C3COC3)c2)n1)c1cccc(C(F)(F)CO)c1F [Example 1-70, (R)-N-(1-(3-(1,1-difluoro-2-hydroxyethyl)-2-fluorophenyl)ethyl)-1-(5-(1-(oxetan-3-yl)-1H-1,2,3-triazol-5-yl)pyridin-3-yl)-6-oxo-1,6-dihydropyridazine-3-carboxamide]	< 50
C[C@@H](NC(=O)c1cc(C(F)(F)F)c(=O)n(-c2cncc(-c3cnnn3C)c2)n1)c1cccc(C(F)(F)CO)c1F [Example 1-72, (R)-N-(1-(3-(1,1-difluoro-2-hydroxyethyl)-2-fluorophenyl)ethyl)-1-(5-(1-methyl-1H-1,2,3-triazol-5-yl)pyridin-3-yl)-6-oxo-5-(trifluoromethyl)-1,6-dihydropyridazine-3-carboxamide]	< 50
